Format in all cases: in vivo
Assay [1] has as its system GLYCINE MAX(L) MERR. CV. WILLIAMS
Kind of assay: Postemergence herbicidal evaluation, GLXMAW (Soybean, Williams). Details: key to GLXMAW rating / Herbicidal effect rating, GLXMAW / GLXMAW: 0-9 visual rating scale vs untreated control. An outline of the steps:
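Soybean seedlings (Williams) were raised in jiffy flats for roughly two weeks, then sprayed postemergence through a nozzle at 40 psi with test compound dispersed in 50/50 acetone/water containing 0.5% TWEEN®20. Treated plants were kept on greenhouse benches under normal care and visually rated on a 0-9 scale four to five weeks later.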

The subject of assay [2] is ORYZA SATIVA, L. TEBONNET
Kind of assay: Postemergence herbicidal evaluation, ORYSAT (Rice, Tebonnet). Details: key: 0-9 visual rating scale vs untreated control. As to the method:
In the tests, seedling plants are grown in jiffy flats for about two weeks. The test compounds are dispersed in 50/50 acetone/water mixtures containing 0.5% TWEEN®20, a polyoxyethylene sorbitan monolaurate surfactant of Atlas Chemical Industries, in sufficient quantities to provide the equivalent of about 0.125 kg to 0.500 kg per hectare of active compound when applied to the plants through a spray nozzle operating at 40 psi for a predetermined time. After spraying, the plants are placed on greenhouse benches and are cared for in the usual manner, commensurate with conventional greenhouse practices. From four to five weeks after treatment, the seedling plants are examined and rated according to the rating system set forth below. Where more than one test is involved for a given compound, the data are averaged.
Plant species employed in these evaluations are reported by header abbreviation, common name and scientific name.
Results of herbicide evaluation are expressed on a rating scale (0-9). The scale is based upon a visual observation of plant stand, vigor, malformation, size, chlorosis and overall plant appearance as compared with a control.

The subject of another assay is […], PRESL. Briefly: Preemergence weed control under flooded paddy conditions, MOOVA (Monochoria). Conditions: pre-weed. The method in brief:
(§1)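 Seeds or propagules were planted 0.5 cm deep in silt loam, with flood water held at 1.5 to 3 cm. Compound in 50/50 aqueous/acetone was pipetted into the flood water at about 0.5, 0.25, 0.125 and 0.063 kg/ha. Injury was rated visually on a 0-9 scale against a control 3-4 weeks after treatment.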

The test system of assay [3] is ECHINOCHLOA ORYZOIDES (ARD.)FRITSCH. Kind of assay: Preemergence weed control under flooded paddy conditions, ECHORC (Watergrass (Calif.)). Conditions: pre-weed. The method in brief: as §1
In the next assay the test system is SAGITTARIA PYGMAEA, L. Briefly: Preemergence weed control under flooded paddy conditions, SAGPY (Arrowhead (Pygmaea)). Conditions: pre-weed. The method in brief: as §1
For assay [4], the system named is CYPERUS SEROTINUS, ROTTB. Kind of assay: Preemergence weed control under flooded paddy conditions, CYPSE (Flatsedge). Conditions: for CYPSE: pre-weed; for CYPSE herbicidal rating: preemergence weeds, rated three to four weeks after treatment. An outline of the steps:
as §1

A further assay relates to CYPERUS IRIA. Kind of assay: Preemergence weed control under flooded paddy conditions, CYPIR (Rice Flatsedge). The settings on record: pre-weed. The method in brief:
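Seeds or propagating organs of rice flatsedge were planted in the top 0.5 cm of silt loam soil in 32 oz. plastic containers, 10.5 cm across and without drainage holes. Water was kept 1.5 to 3 cm above the soil throughout. Treated containers were kept on greenhouse benches, and herbicidal effect was visually rated on a 0-9 scale against a control.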

In a further assay the test system is CHENOPODIUM ALBUM, L. Briefly: Postemergence herbicidal evaluation, CHEAL (Lambsquarters, Common). The settings on record: for CHEAL, herbicide rating (0-9): rated four to five weeks after treatment, averaged. The method in brief: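 Seedlings of common lambsquarters (Chenopodium album) were raised in jiffy flats for roughly two weeks, then sprayed postemergence through a nozzle at 40 psi with test compound dispersed in 50/50 acetone/water containing 0.5% TWEEN®20 surfactant. Plants were kept on greenhouse benches under standard care and rated visually on a 0-9 scale versus controls.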

In the next assay the test system is CASSIA OBTUSIFOLIA, L. Kind of assay: Preemergence herbicidal evaluation, CASOB (Sicklepod). The method in brief:
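Seeds of various monocot and dicot plants, including sicklepod, were each mixed with potting soil and sown on roughly one inch of soil in separate pint cups for preemergence testing. Treated cups were kept on greenhouse benches, watered and maintained conventionally. Four to five weeks after treatment, each cup was visually rated on a 0-9 scale against a control.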

The subject of the next assay is ZEA MAYS L. Briefly: Preemergence herbicidal evaluation, ZEAMX (Corn, Field). An outline of the steps: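 Corn (Zea mays) seeds were mixed with potting soil and planted on about one inch of soil in pint cups, then treated preemergence. Cups were kept on greenhouse benches, watered and maintained conventionally, and after four to five weeks were visually rated on a 0-9 scale versus an untreated control.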

On to `Cn1c(=O)[nH]c(=O)n(-c2cccc(Oc3ccc(C(F)(F)F)cc3Cl)c2)c1=O` [E, reference compound], for which the GLXMAW in [1] (Rate 0.063 kg/ha) turned out to be 2.0; in assay [1] (Rate 0.125 kg/ha) it was 2.5; in assay [1] (Rate 0.250 kg/ha), 3.0; in assay [1] (Rate 0.500 kg/ha), 3.5. The ORYSAT was found to be 1.5 in assay [2] (Rate 0.063 kg/ha), 2.0 in assay [2] (Rate 0.125 kg/ha), 2.0 in [2] (Rate 0.250 kg/ha) and 3.0 in [2] (Rate 0.500 kg/ha). Also, the MOOVA in assay […], PRESL. (Rate 0.250 kg/ha) is given as 0.0; in assay […], PRESL. (Rate 0.500 kg/ha), 0.0; in […], PRESL. (Rate 1.000 kg/ha), 0.0. In addition, the ECHORC in assay [3] (Rate 0.250 kg/ha), in assay [3] (Rate 0.500 kg/ha) and in assay [3] (Rate 1.000 kg/ha) was 0.0 throughout. The SAGPY in the assay on SAGITTARIA PYGMAEA, L. (Rate 0.250 kg/ha) was 0.0; in the assay on SAGITTARIA PYGMAEA, L. (Rate 0.500 kg/ha), 0.0; in the assay on SAGITTARIA PYGMAEA, L. (Rate 1.000 kg/ha) it was 0.0. Besides, the CYPSE in [4] (Rate 0.250 kg/ha), in [4] (Rate 0.500 kg/ha) and in [4] (Rate 1.000 kg/ha) was 0.0 each time. Moreover, the CYPIR in the assay with CYPERUS IRIA (Rate 0.250 kg/ha), in the assay on CYPERUS IRIA (Rate 0.500 kg/ha) and in the assay with CYPERUS IRIA (Rate 1.000 kg/ha) was 0.0 in each case. The CHEAL is given as 7.0 in the assay on CHENOPODIUM ALBUM, L. (Rate 0.063 kg/ha); 7.0 with CHENOPODIUM ALBUM, L. (Rate 0.125 kg/ha); 8.0 with CHENOPODIUM ALBUM, L. (Rate 0.250 kg/ha); 8.0 in the assay with CHENOPODIUM ALBUM, L. (Rate 0.500 kg/ha). The CASOB in the assay with CASSIA OBTUSIFOLIA, L. (Rate 0.125 kg/ha) stood at 0.0; in the assay with CASSIA OBTUSIFOLIA, L. (Rate 0.250 kg/ha) it was 0.0; in the assay on CASSIA OBTUSIFOLIA, L. (Rate 0.500 kg/ha) it was 0.0; with CASSIA OBTUSIFOLIA, L. (Rate 1.000 kg/ha), 0.0.
`COC(=O)Cn1c(=O)[nH]c(=O)n(-c2cc(Oc3ccc(C(F)(F)F)cc3Cl)ccc2[N+](=O)[O-])c1=O` [Compound 8, Methyl 3-{5-[(2-chloro-α,α,α-trifluoro-p-tolyl)oxy]-2-nitrophenyl}tetrahydro-2,4,6-trioxo-s-triazine-1(2H)-acetate]: the CYPSE herbicidal rating in assay [4] (Rate 0.063 kg/ha), in assay [4] (Rate 0.125 kg/ha) and in assay [4] (Rate 0.250 kg/ha) was 0.0 throughout. Besides, the “CHEAL, herbicide rating (0-9)” value in the assay with CHENOPODIUM ALBUM, L. (Rate 0.125 kg/ha) worked out at 9.0; in the assay with CHENOPODIUM ALBUM, L. (Rate 0.250 kg/ha) it was 9.0; with CHENOPODIUM ALBUM, L. (Rate 0.500 kg/ha), 9.0.
On to `Cn1c(=O)[nH]c(=O)n(-c2cc(Oc3c(F)cc(C(F)(F)F)cc3Cl)ccc2[N+](=O)[O-])c1=O` [D, reference compound], for which the ZEAMX in the assay with ZEA MAYS L. (Rate 0.031 kg/ha), in the assay on ZEA MAYS L. (Rate 0.063 kg/ha), with ZEA MAYS L. (Rate 0.125 kg/ha) and in the assay on ZEA MAYS L. (Rate 0.250 kg/ha) was 0.0 each time. For the same compound, the GLXMAW was 2.5 in assay [1] (Rate 0.008 kg/ha); 4.2 in assay [1] (Rate 0.016 kg/ha); 4.5 in [1] (Rate 0.031 kg/ha); 4.7 in assay [1] (Rate 0.063 kg/ha); 5.5 in assay [1] (Rate 0.125 kg/ha). Moreover, the ORYSAT is on record as 3.8 in assay [2] (Rate 0.016 kg/ha), 4.3 in assay [2] (Rate 0.031 kg/ha), 4.8 in assay [2] (Rate 0.063 kg/ha) and 5.3 in assay [2] (Rate 0.125 kg/ha). For the same compound, the ECHORC in assay [3] (Rate 0.031 kg/ha), in assay [3] (Rate 0.063 kg/ha), in [3] (Rate 0.125 kg/ha) and in assay [3] (Rate 0.250 kg/ha) was 9.0 in each case. In addition, the CHEAL in the assay on CHENOPODIUM ALBUM, L. (Rate 0.008 kg/ha) was found to be 7.0; in the assay with CHENOPODIUM ALBUM, L. (Rate 0.016 kg/ha), 7.3; in the assay with CHENOPODIUM ALBUM, L. (Rate 0.031 kg/ha), 6.3; in the assay with CHENOPODIUM ALBUM, L. (Rate 0.063 kg/ha), 7.0; in the assay on CHENOPODIUM ALBUM, L. (Rate 0.125 kg/ha), 9.0.

Values taken from patent EP0745595A1, “3-(3-Aryloxyphenyl)-1-(substituted methyl)-s-triazine-2,4,6-oxo or thiotrione herbicidal agents” (American Cyanamid Company, priority 1995, dated 1996).
